Measurements from patent publication US20140308317A1, “Polymeric Compounds And Methods Of Making And Using The Same” (CELLCEUTIX CORPORATION, priority 2012, published 2014).
≈ marks a conversion by molar mass, not a printed value.

What was measured:
[1] = test system: Klebsiella pneumoniae ATCC 13883; test: Minimum Inhibitory Concentration (MIC), modified microbroth dilution; assay type: cell-based; conditions: Klebsiella pneumoniae, ATCC13883; K. pneumoniae (13883); overnight incubation (18 hours); read-out: MIC50 K. Pnuemnoiae
[2] = test system: Enterococcus faecalis ATCC 29212; test: as above; assay type: cell-based; conditions: Enterococcus faecalis, ATCC29212; E. faecalis (29212); overnight incubation (18 hours); read-out: MIC50 E. faecalis
[3] = Cytotoxicity colorimetric (tetrazolium) assay; assay type: cell-based, human; conditions: human, HepG2 cells (HB-8065), HepG2 cells; one hour with compound in serum-free media
Protocol: (§1) Cytotoxicity of the compounds was evaluated in a colorimetric assay using a transformed human liver cell line (HepG2, HB-8065) and an embryonic mouse cell line (NIH/3T3 cells, CRL-1658). This assay measures the bioreduction of a novel tetrazolium compound to a soluble formazan product by viable cells. HepG2 cells were seeded in 96 well plates at 2×10^4 cells/well in MEM medium with 10% fetal bovine serum (FBS) 24 hours prior to use. NIH/3T3 cells were seeded in 96 well plates at 2×10^4 cells/well in DMEM medium with 10% bovine calf serum (BCS) 24 hours prior to use. Cell monolayers were rinsed in serum-free media and incubated for one hour with compounds in serum-free media. After incubation, the media is replaced with serum supplemented media and live cells were measured using the Cell Titer 96 Aqueous […] Assay kit (Promega, Madison, Wis.). EC50 values were determined using a four parameter logistic equation: Y=Bottom+(Top-Bottom)/(1+10̂((LogEC50−X)*HillSlope)).
(§2) Actual results from a representative cytotoxicity assay are shown below in Table 2. Data is expressed as EC50 in μg/mL.

[4] = test system: Pseudomonas aeruginosa ATCC 10145; test: Minimum Inhibitory Concentration (MIC), modified microbroth dilution; assay type: cell-based; conditions: Pseudomonas aeruginosa, ATCC10145; P. aeruginosa (10145); overnight incubation (18 hours); read-out: MIC50 P. Aeruginosa
[5] = Cytotoxicity colorimetric (tetrazolium) assay; assay type: cell-based, mouse; conditions: mouse, NIH/3T3 cells (CRL-1658), NIH/3T3 cells; one hour with compound in serum-free media
Protocol: as §1, §2

E. Coli ATCC 25922 = test: Minimum Inhibitory Concentration (MIC), modified microbroth dilution; assay type: cell-based; conditions: Escherichia coli, ATCC25922; E. coli (25922); overnight incubation (18 hours); read-out: MIC50 E. coli
[6] = test system: Staphylococcus aureus ATCC 27660; test: as above; assay type: cell-based; conditions: Staphylococcus aureus, ATCC27660; S. aureus (27660); overnight incubation (18 hours); read-out: MIC50 S. aureus

Row | SMILES | MIC50 [1] [µg/mL] | MIC50 [2] [µg/mL] | EC50 at 1 h [3] [µg/mL] | MIC50 [4] [µg/mL] | EC50 at 1 h [5] [µg/mL] | MIC50 (E. Coli ATCC 25922) [µg/mL] | MIC50 [6] [µg/mL]
1 | N=C(N)NCCc1cc(CCNC(=N)N)cc(-c2csc(-c3cccc(-c4nc(-c5cc(CCNC(=N)N)cc(CCNC(=N)N)c5)cs4)c3)n2)c1 [Compound 137] | > 50 | 12.5 (≈ 17 µM) | 55.6 (≈ 75.4 µM) | 12.5 (≈ 17 µM) | 26.6 (≈ 36.1 µM) | 12.5 (≈ 17 µM) | 3.13 (≈ 4.25 µM)
2 | NCCCOc1cc(OCCCN)cc(-c2cccc(-c3cccc(-c4cc(OCCCN)cc(OCCCN)c4)c3)c2)c1 [Compound 144] | 6.25 (≈ 10.4 µM) | 6.25 (≈ 10.4 µM) | 448 (≈ 748 µM) | 6.25 (≈ 10.4 µM) | 320 (≈ 534 µM) | 3.13 (≈ 5.23 µM) | 0.195 (≈ 0.326 µM)
3 | NCCc1cccc(-c2coc(-c3cccc(-c4nc(-c5cccc(CCN)c5)co4)c3)n2)c1 [Compound 132] | 25 (≈ 55.5 µM) | 12.5 (≈ 27.7 µM) | 50.1 (≈ 111 µM) | 25 (≈ 55.5 µM) | 23.5 (≈ 52.1 µM) | 12.5 (≈ 27.7 µM) | 12.5 (≈ 27.7 µM)
4 | NCCCn1c2cc(Br)ccc2c2ccc(Br)cc21 [Compound 106] | 25 (≈ 65.4 µM) | – | 61.9 (≈ 162 µM) | 100 (≈ 262 µM) | 107 (≈ 280 µM) | 12.5 (≈ 32.7 µM) | 12.5 (≈ 32.7 µM)
5 | NCCCOc1cc(OCCCN)cc(-c2ccc3sc4ccc(-c5cc(OCCCN)c(OCCCN)c(OCCCN)c5)cc4c3c2)c1 [Compound 182] | 25 (≈ 35.6 µM) | 6.25 (≈ 8.9 µM) | 173 (≈ 246 µM) | 12.5 (≈ 17.8 µM) | 78.2 (≈ 111 µM) | 6.25 (≈ 8.9 µM) | 1.56 (≈ 2.22 µM)
6 | NCCc1cccc(-c2coc(-c3cccc(-c4ncco4)c3)n2)c1 [Compound 133] | > 50 | 25 (≈ 75.4 µM) | 130 (≈ 392 µM) | > 50 | 70.2 (≈ 212 µM) | > 50 | 50 (≈ 151 µM)
7 | NCCCn1cc(-c2ccc3oc4ccc(-c5cnn(CCCN)c5)cc4c3c2)cn1 [Compound 157] | – | 25 (≈ 60.3 µM) | 461 (≈ 1110 µM) | 25 (≈ 60.3 µM) | 713 (≈ 1720 µM) | 50 (≈ 121 µM) | 6.25 (≈ 15.1 µM)
8 | NCCCOc1cc(OCCCN)cc(-c2ccc(C(=O)c3ccc(-c4cc(OCCCN)cc(OCCCN)c4)cc3)cc2)c1 [Compound 165] | > 50 | 25 (≈ 39.9 µM) | 355 (≈ 566 µM) | 25 (≈ 39.9 µM) | 357 (≈ 570 µM) | 50 (≈ 79.8 µM) | 6.25 (≈ 9.97 µM)
9 | NCCCn1c2cc(-c3cccc(N)c3)ccc2c2ccc(-c3cccc(N)c3)cc21 [Compound 159] | 12.5 (≈ 30.7 µM) | 12.5 (≈ 30.7 µM) | 64.7 (≈ 159 µM) | 100 (≈ 246 µM) | 45.7 (≈ 112 µM) | 12.5 (≈ 30.7 µM) | 1.56 (≈ 3.84 µM)
10 | NCCc1ccc(C#Cc2cccc(C#Cc3ccc(CCN)c(CCN)c3)c2)cc1CCN [Compound 194] | > 50 | 6.25 (≈ 13.9 µM) | 192 (≈ 426 µM) | 12.5 (≈ 27.7 µM) | 154 (≈ 342 µM) | 12.5 (≈ 27.7 µM) | 1.56 (≈ 3.46 µM)
11 | N=C(N)NCCc1cc(C#Cc2cc(C#Cc3cc(CCNC(=N)N)cc(CCNC(=N)N)c3)c(F)cc2F)cc(CCNC(=N)N)c1 [Compound 193] | 1.56 (≈ 2.38 µM) | 1.56 (≈ 2.38 µM) | 178 (≈ 272 µM) | 6.25 (≈ 9.55 µM) | 62.4 (≈ 95.3 µM) | 1.56 (≈ 2.38 µM) | 0.39 (≈ 0.596 µM)
12 | NCCc1cc(CCN)cc(-c2csc(-c3cccc(-c4nc(-c5cc(CCN)cc(CCN)c5)cs4)c3)n2)c1 [Compound 135] | > 50 | > 50 | 134 (≈ 236 µM) | 25 (≈ 44 µM) | 34.5 (≈ 60.6 µM) | 50 (≈ 87.9 µM) | 6.25 (≈ 11 µM)
13 | NCCc1cc(C#Cc2ccc(C#Cc3cc(CCN)cc(CCN)c3)cc2)cc(CCN)c1 [Compound 198] | 50 (≈ 111 µM) | 50 (≈ 111 µM) | 185 (≈ 411 µM) | 50 (≈ 111 µM) | 282 (≈ 626 µM) | 50 (≈ 111 µM) | 25 (≈ 55.5 µM)
14 | NCCc1cc(C#Cc2cc(C#Cc3cc(CCN)cc(CCN)c3)c(F)cc2F)cc(CCN)c1 [Compound 192] | > 50 | 12.5 (≈ 25.7 µM) | 554 (≈ 1140 µM) | 50 (≈ 103 µM) | 542 (≈ 1110 µM) | 12.5 (≈ 25.7 µM) | 3.13 (≈ 6.43 µM)
15 | NCCCOc1cc(OCCCN)cc(-c2ccc(C(F)(F)c3ccc(-c4cc(OCCCN)cc(OCCCN)c4)cc3)cc2)c1 [Compound 166] | 6.25 (≈ 9.63 µM) | 1.56 (≈ 2.4 µM) | 137 (≈ 211 µM) | 6.25 (≈ 9.63 µM) | 84 (≈ 129 µM) | 3.13 (≈ 4.82 µM) | 0.39 (≈ 0.601 µM)
16 | N=C(N)NCCc1cc(C#Cc2ccc(C#Cc3cc(CCNC(=N)N)cc(CCNC(=N)N)c3)cc2)cc(CCNC(=N)N)c1 [Compound 199] | 1.56 (≈ 2.52 µM) | 12.5 (≈ 20.2 µM) | 135 (≈ 218 µM) | 12.5 (≈ 20.2 µM) | 116 (≈ 188 µM) | 1.56 (≈ 2.52 µM) | 0.78 (≈ 1.26 µM)
17 | N=C(N)NCC(CNC(=N)N)c1cc(Br)cc(C#Cc2cccc(C#Cc3cc(Br)cc(C(CNC(=N)N)CNC(=N)N)c3)c2)c1 (stereo not drawn) [Compound 191] | 6.25 (≈ 8.35 µM) | 3.13 (≈ 4.18 µM) | 70.3 (≈ 93.9 µM) | 6.25 (≈ 8.35 µM) | 17.4 (≈ 23.3 µM) | 3.13 (≈ 4.18 µM) | 1.56 (≈ 2.08 µM)
18 | N=C(N)NCCc1ccc(C#Cc2cccc(C#Cc3ccc(CCNC(=N)N)c(CCNC(=N)N)c3)c2)cc1CCNC(=N)N [Compound 195] | 6.25 (≈ 10.1 µM) | 1.56 (≈ 2.52 µM) | 163 (≈ 263 µM) | 12.5 (≈ 20.2 µM) | 95.8 (≈ 155 µM) | 3.13 (≈ 5.06 µM) | 0.78 (≈ 1.26 µM)
19 | N=C(N)NCCc1cc(C#Cc2cccc(C#Cc3cc(CCNC(=N)N)cc(CCNC(=N)N)c3)c2)cc(CCNC(=N)N)c1 [Compound 189] | 1.56 (≈ 2.52 µM) | 6.25 (≈ 10.1 µM) | 256 (≈ 413 µM) | 6.25 (≈ 10.1 µM) | 131 (≈ 212 µM) | 1.56 (≈ 2.52 µM) | 3.9 to 7.8 (≈ 6.3 to 12.6 µM)
20 | N=C(N)NCCc1cccc(-c2coc(-c3cccc(-c4nc(-c5cccc(CCNC(=N)N)c5)co4)c3)n2)c1 [Compound 134] | 50 (≈ 93.5 µM) | 12.5 (≈ 23.4 µM) | 70.9 (≈ 133 µM) | 25 (≈ 46.8 µM) | 33.4 (≈ 62.5 µM) | 12.5 (≈ 23.4 µM) | 0.78 (≈ 1.46 µM)
21 | O=C(Nc1ccc(-c2ccc(N3CCNCC3)nc2)cc1F)Nc1ccc(-c2ccc(N3CCNCC3)nc2)cc1F [Compound 141] | 25 (≈ 43.8 µM) | – | 24.4 (≈ 42.8 µM) | 12.5 (≈ 21.9 µM) | 404 (≈ 708 µM) | 6.25 (≈ 11 µM) | 25 (≈ 43.8 µM)
